According to patent publication US9993494B2, “Compositions and methods for treating fibrotic disease” (eFFECTOR Therapeutics, Inc., priority 2014, dated 2018):

Tested on: normal human lung fibroblasts
Test: Ribosomal profiling: translational efficiency in TGFβ-treated fibroblasts
Assay type: cell-based
Summary of the method: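 Genome-wide RPF and total RNA libraries (ARTseq, RNA-Seq) were made from lysates of cycloheximide-treated, PBS-washed cells. After trimming and human-genome mapping, per-gene coding-region counts were compared between RPF and RNA for translational efficiency. Genes scoring low in either fraction were dropped.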

Substance: TGFβ
- Log2 TE FANCL (ENSG00000115392, 5 replicates): −1.233
- Log2 TE IL1R1 (ENSG00000115594, 5 replicates): −1.003
- Log2 TE PIK3R3 (ENSG00000117461, 5 replicates): −1.0571
- Log2 TE DPH5 (ENSG00000117543, 5 replicates): 1.114
- change in translational profile of DPH5 caused by TGFβ (ENSG00000117543, Control vs. TGFβ): D (D = <1.0 to 1.5)
- Log2 TE CENPF (ENSG00000117724, 5 replicates): −1.237
- Log2 TE RPS25 (ENSG00000118181, 5 replicates): 1.697
- Log2 TE SGIP1 (ENSG00000118473, 5 replicates): −2.768
- Log2 TE PPL (ENSG00000118898, 5 replicates): −1.54
- change in translational profile of PPL caused by TGFβ (ENSG00000118898, Control vs. TGFβ): B (B = <−1.5 to −2.5)
- Log2 TE NR4A3 (ENSG00000119508, 5 replicates): −1.931
- Log2 TE TEK (ENSG00000120156, 5 replicates): −1.652
- change in translational profile of PLEKHG1 caused by TGFβ (ENSG00000120278, Control vs. TGFβ): B (B = <−1.5 to −2.5)
- change in translational profile of LIAS caused by TGFβ (ENSG00000121897, Control vs. TGFβ): D (D = <1.0 to 1.5)
- Log2 TE GPSM2 (ENSG00000121957, 5 replicates): −1.408
- change in translational profile of GPSM2 caused by TGFβ (ENSG00000121957, Control vs. TGFβ): B (B = <−1.5 to −2.5)
- change in translational profile of RPL21 caused by TGFβ (ENSG00000122026, Control vs. TGFβ): E (E = <1.5 to 2.5)
- Log2 TE RPL5 (ENSG00000122406, 5 replicates): 1.593
- change in translational profile of RPL5 caused by TGFβ (ENSG00000122406, Control vs. TGFβ): E (E = <1.5 to 2.5)
- change in translational profile of INHBA caused by TGFβ (ENSG00000122641, Control vs. TGFβ): D (D = <1.0 to 1.5)
- Log2 TE CIT (ENSG00000122966, 5 replicates): −3.084
- change in translational profile of CIT caused by TGFβ (ENSG00000122966, Control vs. TGFβ): A (A = <−2.5)
- Log2 TE ATP8A1 (ENSG00000124406, 5 replicates): −2.122
- Log2 TE TRERF1 (ENSG00000124496, 5 replicates): −1.891
- Log2 TE RPS10 (ENSG00000124614, 5 replicates): 1.211
- Log2 TE COL21A1 (ENSG00000124749, 5 replicates): −1.445
- Log2 TE ATP5S (ENSG00000125375, 5 replicates): 1.075
- Log2 TE RPL23 (ENSG00000125691, 5 replicates): 1.604
- change in translational profile of RPL23 caused by TGFβ (ENSG00000125691, Control vs. TGFβ): E (E = <1.5 to 2.5)
- Log2 TE RTN2 (ENSG00000125744, 5 replicates): −1.143
- Log2 TE LAMP5 (ENSG00000125869, 5 replicates): 1.298
- change in translational profile of LAMP5 caused by TGFβ (ENSG00000125869, Control vs. TGFβ): E (E = <1.5 to 2.5)
- Log2 TE NECAB3 (ENSG00000125967, 5 replicates): 1.403
- change in translational profile of NECAB3 caused by TGFβ (ENSG00000125967, Control vs. TGFβ): E (E = <1.5 to 2.5)
- change in translational profile of COX7C caused by TGFβ (ENSG00000127184, Control vs. TGFβ): D (D = <1.0 to 1.5)
- Log2 TE TNFRSF19 (ENSG00000127863, 5 replicates): −1.093
- Log2 TE ZFP36 (ENSG00000128016, 5 replicates): 1.188
- change in translational profile of LIF caused by TGFβ (ENSG00000128342, Control vs. TGFβ): D (D = <1.0 to 1.5)
- Log2 TE APOBEC3F (ENSG00000128394, 5 replicates): −1.127
- Log2 TE SMO (ENSG00000128602, 5 replicates): −1.254
- Log2 TE CGNL1 (ENSG00000128849, 5 replicates): −1.023
- Log2 TE CD68 (ENSG00000129226, 5 replicates): 1.048
- Log2 TE MTUS1 (ENSG00000129422, 5 replicates): −1.149
- change in translational profile of MTUS1 caused by TGFβ (ENSG00000129422, Control vs. TGFβ): B (B = <−1.5 to −2.5)
- Log2 TE ARHGEF6 (ENSG00000129675, 5 replicates): −1.1
- change in translational profile of ARHGEF6 caused by TGFβ (ENSG00000129675, Control vs. TGFβ): C (C = <−1.0 to −1.5)
- Log2 TE RPL36 (ENSG00000130255, 5 replicates): 1.411
- change in translational profile of RPL36 caused by TGFβ (ENSG00000130255, Control vs. TGFβ): E (E = <1.5 to 2.5)
- change in translational profile of GDF15 caused by TGFβ (ENSG00000130513, Control vs. TGFβ): D (D = <1.0 to 1.5)
- change in translational profile of ASS1 caused by TGFβ (ENSG00000130707, Control vs. TGFβ): D (D = <1.0 to 1.5)
- Log2 TE EIF2S3 (ENSG00000130741, 5 replicates): 1.067
- change in translational profile of EIF2S3 caused by TGFβ (ENSG00000130741, Control vs. TGFβ): D (D = <1.0 to 1.5)
- Log2 TE RPL27 (ENSG00000131469, 5 replicates): 1.519
- change in translational profile of RPL27 caused by TGFβ (ENSG00000131469, Control vs. TGFβ): E (E = <1.5 to 2.5)
- Log2 TE TOP2A (ENSG00000131747, 5 replicates): −1.314
- Log2 TE MATN3 (ENSG00000132031, 5 replicates): 1.34
- change in translational profile of MATN3 caused by TGFβ (ENSG00000132031, Control vs. TGFβ): D (D = <1.0 to 1.5)
- Log2 TE SPATA6 (ENSG00000132122, 5 replicates): −1.925
- Log2 TE PPARG (ENSG00000132170, 5 replicates): −3.52
